In patent US20120264753A1, “NOVEL 1-(BIPHENYL-4-YL-METHYL)-1H-IMIDAZOLE DERIVATIVE AND PHARMACEUTICAL PRODUCT CONTAINING SAME” (KOWA COMPANY, LTD., priority 2009, published 2012):

How the values were obtained:
[1] = biological target: T1, angiotensin II type 1 receptor (Oryctolagus cuniculus, UniProt P34976); test: Angiotensin II antagonistic activity in isolated rabbit blood vessels; conditions: angiotensin II (10 nM)-induced contraction of rabbit thoracic aorta ring; read-out: Angiotensin II 50% inhibition concentration
T1 construct: By using a specimen of isolated rabbit blood vessels; from tissue; host or cells: rabbit (New Zealand White) thoracic aorta ring
T1 sequence (P34976 1-359): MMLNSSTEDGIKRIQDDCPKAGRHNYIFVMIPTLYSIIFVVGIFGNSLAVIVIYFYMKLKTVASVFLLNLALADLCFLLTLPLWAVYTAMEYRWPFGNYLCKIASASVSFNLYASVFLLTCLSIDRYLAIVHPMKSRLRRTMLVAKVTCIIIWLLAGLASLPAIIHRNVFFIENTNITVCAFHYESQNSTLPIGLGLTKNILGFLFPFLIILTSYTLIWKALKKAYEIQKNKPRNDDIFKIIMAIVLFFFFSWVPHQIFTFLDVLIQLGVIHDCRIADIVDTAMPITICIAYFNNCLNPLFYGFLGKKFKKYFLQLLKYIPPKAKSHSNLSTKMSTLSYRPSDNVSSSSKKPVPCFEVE
Excerpt: Angiotensin II Antagonistic Activity in Isolated Rabbit Blood Vessels
By using a specimen of isolated rabbit blood vessels, antagonistic activity of the compounds of the invention against angiotensin II type 1 receptor was estimated from a dose-response curve of angiotensin II-induced blood vessel contraction. Specifically, the specimen of thoracic aorta ring of a rabbit (New Zealand White: male, 2.4 to 3.0 kg) was suspended in a magnus bath filled with Krebs-Henseleite buffer (composition: 118 mM NaCl, 4.7 mM KCl, 2.55 mM CaCl2, 1.18 mM MgSO4, 1.18 mM KH2PO4, 24.88 mM NaHCO3, and 11.1 mM D-glucose), and angiotensin II (10 nM)-induced contraction was obtained in the presence of the compounds of each Example (1 nmol/L to 10 μmol/L). During the measurement, the inside temperature of the magnus bath was maintained at 37° C. and the bath was continuously ventilated with a sufficient amount of mixed gas (95% O2 and 5% CO2). The angiotensin II-induced contraction was converted into a relative value (%) that is based on the angiotensin II (10 nM)-induced contraction in the absence of the compounds of each Example. From the concentration-response curve obtained therefrom, 50% inhibition concentration (IC50 value) was calculated by using SAS Preclinical Package Ver 5.0 (trade name, manufactured by SAS institute Japan Co., Tokyo, Japan), which is a statistical analysis program. As described in the Table 1, it was confirmed that the compounds of the invention have a potent angiotensin II antagonistic activity.

human PPARγ2 = biological target: T2, human PPARγ2 (Homo sapiens, UniProt P37231); test: PPARγ activation activity, Gal4-PPARγ2 LBD luciferase transfection assay in COS7 cells; format: cell-based; conditions: Gal4-human PPARγ2 LBD chimera, luciferase reporter, 16 hours
T2 construct: the amino acids 182 to 505 of human PPARγ2; expressed in transfected cells; host or cells: COS7 cells (African green monkey kidney)
T2 sequence (P37231 182-505): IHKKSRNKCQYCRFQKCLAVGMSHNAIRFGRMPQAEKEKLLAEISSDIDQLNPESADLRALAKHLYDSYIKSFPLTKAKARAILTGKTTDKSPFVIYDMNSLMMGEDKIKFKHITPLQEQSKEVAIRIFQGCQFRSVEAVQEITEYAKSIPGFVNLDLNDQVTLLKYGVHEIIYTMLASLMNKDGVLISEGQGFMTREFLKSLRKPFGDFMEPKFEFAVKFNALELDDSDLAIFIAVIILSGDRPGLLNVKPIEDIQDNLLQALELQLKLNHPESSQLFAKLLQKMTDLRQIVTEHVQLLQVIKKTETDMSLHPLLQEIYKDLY
Description: PPARγ Activation Activity
The agonistic activity of the compounds of the invention on PPARγ was measured based on the transfection assay using COS7 cells (DS Pharma Biomedical Co., Ltd., Osaka, Japan), which are the cell line derived from the kidney of the African green monkey. COS7 cells were cultured under 5% CO2 concentration, and DMEM medium containing 10% fetal bovine serum, glutamic acid, and antibiotics was used as a medium.
As an expression vector, a chimera in which DNA binding domain of Gal4, which is a yeast transcription factor, and ligand binding domain of human PPARγ2 are fused, i.e., a fused product between the amino acids 1 to 147 of Gal4 transcription factor and the amino acids 182 to 505 of human PPARγ2, was used. Furthermore, as a reporter vector, a firefly luciferase containing five copies of Gal4 recognition sequence in the promoter region was used. Plasmid transfection to the cells was performed according to a method which uses jetPEI (trade name, manufactured by Funakoshi Co., Ltd., Tokyo, Japan). Furthermore, β-galactosidase expression vector was employed as an internal standard.
After the transfection of the cells, the medium was replaced with a DMEM medium (containing […]) added with the test compound, and the cells were further cultured for 16 hours. After that, the luciferase activity and β-galactosidase activity in the cell lysis solution were measured.
For the present test, dimethyl sulfoxide (DMSO) was used for dissolution and dilution of the test compounds, and during the cell treatment, the DMSO concentration in DMEM medium (containing 1% serum) was adjusted to 0.1%. The 50% effective concentration of the test compound (EC50, 50% effect concentration) was calculated by using SAS Preclinical Package Ver 5.0 (trade name, manufactured by SAS institute Japan Co., Tokyo, Japan), which is a statistical analysis program.

Row | Structure (SMILES) | IC50 [1] | EC50 (human PPARγ2)
1 | CCCCc1nc(-c2ncc(OCC)cn2)c(CO)n1Cc1ccc(-c2ccccc2-c2nnn[nH]2)cc1 [Example 5, [1-[{2′-(1H-tetrazol-5-yl)biphenyl-4-yl}methyl]-2-butyl-4-(5-ethoxypyrimidin-2-yl)-1H-imidazol-5-yl]methanol] | 0.77 µM | 
2 | CCCCc1nc(-c2ncc(OCC)cn2)c(C(=O)OC)n1Cc1ccc(-c2ccccc2-c2nnn[nH]2)cc1 [Example 8, methyl 1-[{2′-(1H-tetrazol-5-yl)biphenyl-4-yl}methyl]-2-butyl-4-(5-ethoxypyrimidin-2-yl)-1H-imidazole-5-carboxylic acid] | 1.01 µM | 3.01 µM
3 | CCCCc1nc(-c2ccc(F)cc2)c(C(=O)NCC)n1Cc1ccc(-c2ccccc2-c2nnn[nH]2)cc1 [Example 16, 1-[{2′-(1H-tetrazol-5-yl)biphenyl-4-yl}methyl]-2-butyl-N-ethyl-4-(4-fluorophenyl)-1H-imidazole-5-carboxamide] | 0.99 µM | 
4 | CCCCc1nc(-c2ccc(F)cc2)c(C(=O)N(CC)CC)n1Cc1ccc(-c2ccccc2-c2noc(=O)[nH]2)cc1 [Example 12] |  | 2.37 µM
5 | CCCc1nc2c(C)cc(-c3nc4ccccc4n3C)cc2n1Cc1ccc(-c2ccccc2C(=O)O)cc1 [telmisartan, reference compound] |  | 1 to 5 µM
6 | CCCCc1nc(-c2ccc(F)cc2)c(C(=O)OC)n1Cc1ccc(-c2ccccc2-c2noc(=O)[nH]2)cc1 [Example 2, methyl 2-butyl-4-(4-fluorophenyl)-1-[{2′-(5-oxo-4,5-dihydro-1,2,4-oxadiazol-3-yl)biphenyl-4-yl}methyl]-1H-imidazole-5-carboxylic acid] | 4.07 µM | 
7 | CCCCc1nc(-c2ncc(OCC)cn2)c(C(=O)OC)n1Cc1ccc(-c2ccccc2-c2noc(=O)[nH]2)cc1 [Example 6, methyl 2-butyl-4-(5-ethoxypyrimidin-2-yl)-1-[{2′-(5-oxo-4,5-dihydro-1,2,4-oxadiazol-3-yl)biphenyl-4-yl}methyl]-1H-imidazole-5-carboxylic acid] | 6.94 µM | 0.56 µM
8 | CCCCc1nc(-c2ccc(F)cc2)c(C(=O)NCC)n1Cc1ccc(-c2ccccc2-c2noc(=O)[nH]2)cc1 [Example 11, 2-butyl-N-ethyl-4-(4-fluorophenyl)-1-[{2′-(5-oxo-4,5-dihydro-1,2,4-oxadiazol-3-yl)biphenyl-4-yl}methyl]-1H-imidazole-5-carboxamide] | 5.69 µM | 2.28 µM
9 | CCCCc1nc(-c2ccc(F)cc2)c(C(=O)N2CCOCC2)n1Cc1ccc(-c2ccccc2-c2nnn[nH]2)cc1 [Example 18, [1-[{2′-(1H-tetrazol-5-yl)biphenyl-4-yl}methyl]-2-butyl-4-(4-fluorophenyl)-1H-imidazol-5-yl](morpholino)methanone] | 1.6 µM | 4.32 µM
10 | CCCCc1nc(-c2ccc(F)cc2)c(C(N)=O)n1Cc1ccc(-c2ccccc2-c2noc(=O)[nH]2)cc1 [Example 10, 2-butyl-4-(4-fluorophenyl)-1-({2′-(5-oxo-4,5-dihydro-1,2,4-oxadiazol-3-yl)biphenyl-4-yl}methyl)-1H-imidazole-5-carboxamide] | 0.8 µM | 3.43 µM
11 | CCCCc1nc(-c2ccc(F)cc2)c(CO)n1Cc1ccc(-c2ccccc2-c2noc(=O)[nH]2)cc1 [Example 1, 3-[4′-[{2-butyl-4-(4-fluorophenyl)-5-(hydroxymethyl)-1H-imidazol-1-yl}methyl]biphenyl-2-yl]-1,2,4-oxadiazol-5(4H)-one] |  | 1.52 µM
12 | CCCCc1nc(-c2ccc(F)cc2)c(C(N)=O)n1Cc1ccc(-c2ccccc2-c2nnn[nH]2)cc1 [Example 15, 1-[{2′-(1H-tetrazol-5-yl)biphenyl-4-yl}methyl]-2-butyl-4-(4-fluorophenyl)-1H-imidazole-5-carboxamide] | 0.46 µM | 
13 | CCCCc1nc(-c2ccc(F)cc2)c(C(=O)N(CC)CC)n1Cc1ccc(-c2ccccc2-c2nnn[nH]2)cc1 [Example 17, 1-[{2′-(1H-tetrazol-5-yl)biphenyl-4-yl}methyl]-2-butyl-N,N-diethyl-4-(4-fluorophenyl)-1H-imidazole-5-carboxamide] |  | 3.3 µM
14 | CCCCc1nc(-c2ccc(F)cc2)c(C(=O)N2CCCC2)n1Cc1ccc(-c2ccccc2-c2nnn[nH]2)cc1 [Example 19, [1-[{2′-(1H-tetrazol-5-yl)biphenyl-4-yl}methyl]-2-butyl-4-(4-fluorophenyl)-1H-imidazol-5-yl](pyrrolidin-1-yl)methanone] | 6.98 µM | 
15 | CCCCc1nc(-c2ncc(OCC)cn2)c(CO)n1Cc1ccc(-c2ccccc2-c2noc(=O)[nH]2)cc1 [Example 4, 3-[4′-[{2-butyl-4-(5-ethoxypyrimidin-2-yl)-5-(hydroxymethyl)-1H-imidazol-1-yl}methyl]-biphenyl-2-yl]-1,2,4-oxadiazol-5(4H)-one] | 1.04 µM | 1.48 µM
